One test has as its target BaF3(T315I) (Homo sapiens, UniProt P00519, T315I, cells depend on it). In words: WST (CCK-8) anti-proliferation assay, BaF3 T315I cells. The following applies: read-out: BaF3(T315I); anti-proliferative IC50, 72 h treatment, CCK-8, BaF3 T315I.
Another test deals with BaF3(WT) (Homo sapiens, UniProt P00519). In words: WST (CCK-8) anti-proliferation assay, BaF3 WT cells. Particulars: read-out: BaF3(WT); anti-proliferative IC50, 72 h treatment, CCK-8, BaF3 WT.

Description for BaF3(T315I): (§1) The anti-proliferative effect of representative Compounds of the Disclosure was determined by a water-soluble tetrazolium (WST)-based assay using Cell Counting Kit-8 (CCK-8). Cells were seeded in 96-well plates and treated with different concentrations of test articles for 72 h. Each treatment was tested in triplicates. Briefly, a series of 9 concentrations were chosen for each test article and added at 100 μl/well into a 96-well plate. Each concentration was tested in triplicates. 100 μl of diluent was added into 3-6 wells in the same plate for cell control group, and another set of 3-6 wells was used as a blank control.
(§2) In each well, 100 μl of cell suspension (containing optimal cell numbers, which creates approximately 100% confluence of cells in control wells based on by the absorbance (OD) value) was dispensed into the same 96-well plate except for the blank well. The plate was then cultured at 37° C. in an incubator in an atmosphere with 5% CO2 for 72 h. At the end of treatments, 20 μl/well of CCK-8 reagent was directly added to each wells. The plate was then incubated at 37° C. in an incubator in an atmosphere with 5% CO2 for 2-4 hour.
(§3) The cells viability was calculated using the mean OD value of triplicated wells following the equation below: (OD sample−OD blank)/(OD cell control−OD blank)×100 IC50 values were calculated with Graphpad Prism 6.0 software using nonlinear regression (curve fitting) type data analysis.
Description for BaF3(WT): as §1, §2, §3

`CC1(C)CN(S(C)(=O)=O)c2cc(C(=O)Nc3ccc(OC(F)(F)Cl)cc3)cc(-c3ccn[nH]3)c21` [III-5, N-(4-(chlorodifluoromethoxy)phenyl)-3,3-dimethyl-1-(methylsulfonyl)-4-(1H-pyrazol-5-yl)indoline-6-carboxamide]: the results for the GI50 at BaF3(T315I) and on BaF3(WT) were 418 nM and 61 nM, respectively.
Take `O=C(Nc1ccc(OC(F)(F)Cl)cc1)c1cc2c(c(-c3ccn[nH]3)c1)N(C1CCCCC1)CC2` [VII-3, N-(4-(chlorodifluoromethoxy)phenyl)-1-cyclohexyl-7-(1H-pyrazol-5-yl) indoline-5-carboxamide]: the GI50 was found to be 574 nM on BaF3(T315I) and 123 nM at BaF3(WT).
The like results for `CC(=O)N(C)CC1Cc2cc(C(=O)Nc3ccc(OC(F)(F)Cl)cc3)cc(-c3ccn[nH]3)c2N1C(C)C` (stereo not drawn) [VII-18, N-(4-(chlorodifluoromethoxy)phenyl)-1-isopropyl-2-((N-methylacetamido)methyl)-7-(1H-pyrazol-5-yl)indoline-5-carboxamide] were, in that order, 484 nM and 124 nM.
In the case of `CNC(=O)C1Cc2cc(C(=O)Nc3ccc(OC(F)(F)Cl)cc3)cc(-c3cncnc3)c2N1C(C)C` (stereo not drawn) [VII-16, N5-(4-(chlorodifluoromethoxy)phenyl)-1-isopropyl-N2-methyl-7-(pyrimidin-5-yl)indoline-2,5-dicarboxamide], the GI50 on BaF3(T315I) was determined as 278 nM; on BaF3(WT) it was 28 nM.
Consider `CN1CCN(CCN2C(=O)c3cc(C(=O)Nc4ccc(OC(F)(F)Cl)cc4)cc(-c4ccn[nH]4)c3C2(C)C)CC1` [IV-6, N-(4-(chlorodifluoromethoxy)phenyl)-1,1-dimethyl-2-(2-(4-methylpiperazin-1-yl)ethyl)-3-oxo-7-(1H-pyrazol-5-yl)isoindoline-5-carboxamide], for which the GI50 came out at 1570 nM on BaF3(T315I) and 501 nM at BaF3(WT).
For the compound `CC(C)N1CCc2cc(C(=O)Nc3ccc(SC(F)(F)F)cc3)cc(-c3ccn[nH]3)c21` [VII-45, 1-isopropyl-7-(1H-pyrazol-5-yl)-N-(4-((trifluoromethyl)thio)phenyl)indoline-5-carboxamide], the GI50 at BaF3(T315I) came out at 474 nM; on BaF3(WT), 18 nM.
As for `CNCC1Cc2cc(C(=O)Nc3ccc(OC(F)(F)Cl)cc3)cc(-c3ccn[nH]3)c2N1C(C)C` (stereo not drawn) [VII-17, N-(4-(chlorodifluoromethoxy)phenyl)-1-isopropyl-2-((methylamino)methyl)-7-(1H-pyrazol-5-yl) indoline-5-carboxamide], the GI50 turned out to be 3230 nM on BaF3(T315I) and 584 nM on BaF3(WT).
The like results for `CN1C(=O)C(C)(C)c2c(-c3ccn[nH]3)cc(C(=O)Nc3ccc(OC(F)(F)Cl)cc3)cc21` [V-2, N-(4-(chlorodifluoromethoxy)phenyl)-1,3,3-trimethyl-2-oxo-4-(1H-pyrazol-5-yl)indoline-6-carboxamide] were, in that order, 354 nM and 55 nM.
For `CC1(C)C(=O)Nc2cc(C(=O)Nc3ccc(OC(F)(F)Cl)cc3)cc(-c3ccn[nH]3)c21` [V-1, N-(4-(chlorodifluoromethoxy)phenyl)-3,3-dimethyl-2-oxo-4-(1H-pyrazol-5-yl)indoline-6-carboxamide], in that order: 71 nM and 45 nM.

These data come from patent US20220332701A1, “HETEROCYCLIC COMPOUNDS AS BCR-ABL INHIBITORS” (ASCENTAGE PHARMA (SUZHOU) CO., LTD., priority 2019, published 2022).
